Experimental data: patent US12552753B2, “Methods and compositions for targeting Tregs using CCR8 inhibitors” (Nanjing Immunophage Biomedical Co., Ltd., priority 2020, dated 2026)
Where a name gives a salt, the structure may show the parent alone.

The molecules below were run against CCR8 (Homo sapiens, UniProt P51685) (assay: Tango assay (Tango-CCR8-Gal4-CHO-K1 cells, CCL1-stimulated, ONE-Glo luminescence)). Conditions: Tango Assay IC50, Inhibition of CCR8 Tango cell in vitro.
Sequence of CCR8 (P51685 whole entry, the tested form may be a part): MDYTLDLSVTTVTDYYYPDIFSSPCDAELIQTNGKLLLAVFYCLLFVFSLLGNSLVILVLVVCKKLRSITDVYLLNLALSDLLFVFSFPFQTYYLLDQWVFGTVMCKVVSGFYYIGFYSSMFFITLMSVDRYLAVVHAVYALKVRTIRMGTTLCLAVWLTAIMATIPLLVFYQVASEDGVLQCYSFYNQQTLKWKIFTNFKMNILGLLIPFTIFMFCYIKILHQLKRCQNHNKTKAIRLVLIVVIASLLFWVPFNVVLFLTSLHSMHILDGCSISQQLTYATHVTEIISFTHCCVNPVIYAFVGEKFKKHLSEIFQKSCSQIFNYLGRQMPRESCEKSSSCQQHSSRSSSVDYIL
In the case of `Cc1ccccc1C(=O)Nc1ccc(S(=O)(=O)NC(C)C2CCCN(C(=O)[C@H](C)NC(=O)OC(C)(C)C)C2)c2ccccc12` (single isomer, unassigned) [Compound 157A], the IC50 is reported as over 10 µM.
Work on `COc1cc(S(=O)(=O)NC(C)C2CC3CCC2CC3)c(OC)cc1NC(=O)c1ccccc1C` (stereo not drawn) [Compound 183, N-(4-(N-(1-(bicyclo[2.2.2]octan-2-yl)ethyl)sulfamoyl)-2,5-dimethoxyphenyl)-2-methylbenzamide] yielded an IC50 of over 10 µM.
`CCCC(=O)N1CCC(NS(=O)(=O)c2ccc(Nc3nccc(C)n3)c3ccccc23)CC1` [Compound 117, N-(1-butyrylpiperidin-4-yl)-4-((4-methylpyrimidin-2-yl)amino)naphthalene-1-sulfonamide] showed an IC50 of 1.65 µM.
For `Cc1ccccc1NC(=O)c1ccc(S(=O)(=O)N[C@H](C)C2CCN(C)CC2)cc1C` [Compound 222, (R)-2-methyl-4-(N-(1-(1-methylpiperidin-4-yl)ethyl)sulfamoyl)-N-(o-tolyl)benzamide], the IC50 was 0.366 µM.
`COc1cccc(C(C)NS(=O)(=O)c2ccc(NC(=O)c3ccccc3C)c3ccccc23)c1` (stereo not drawn) [Compound 73, N-(4-(N-(1-(3-methoxyphenyl)ethyl)sul-famoyl)naphthalen-1-yl)-2-methylbenzamide] showed an IC50 of 0.764 µM.
`Cc1ccccc1C(=O)Nc1ccc(S(=O)(=O)NC2CCC23CCN(C(=O)OC(C)(C)C)CC3)c2ccccc12` (stereo not drawn) [Compound 89, tert-butyl 1-(4-(2-methylbenzamido)naph-thalene-1-sulfonamido)-7-azaspiro[3.5]nonane-7-carboxylate] was tested, and the IC50 was 0.62 µM.
For `Cc1ccc(C(=O)Nc2ccc(S(=O)(=O)N[C@H](C)C3CCNCC3)cc2C)c(C)c1` [Compound 259A, (R)-2,4-dimethyl-N-(2-methyl-4-(N-(1-(piperidin-4-yl)ethyl)sulfamoyl)phenyl)benzamide hydrochloride], the IC50 was 0.003 µM.
In the case of `Cc1ccccc1NC(=O)c1ccc(S(=O)(=O)N[C@H](C)C2CCN(C(=O)OC(C)(C)C)CC2)cc1C` [Compound 112, (R)-tert-butyl 4-(1-(3-methyl-4-(o-tolylcarbamoyl)phenyl-sulfonamido)ethyl)piperi-dine-1-carboxylate], the IC50 is reported as over 10 µM.
For `Cc1cc(S(=O)(=O)N[C@H](C)C2CCNCC2)c(F)cc1NC(=O)c1ccccc1C` [Compound 175, (R)-N-(5-fluoro-2-methyl-4-(N-(1-(piperidin-4-yl)ethyl)sulfamoyl)phen-yl)-2-methylbenzamide], the IC50 was 0.026 µM.
`Cc1ccccc1C(=O)Nc1cc(F)c(S(=O)(=O)N[C@H](C)C2CCN(C)CC2)cc1Cl` [Compound 263, (R)-N-(2-chloro-5-fluoro-4-(N-(1-(1-methylpiperidin-4-yl)ethyl)sulfamoyl)phenyl)-2-methylbenzamide] gave an IC50 of 0.002 µM.
`Cc1cc(S(=O)(=O)N[C@H](C)C2CCNCC2)ccc1NC(=O)C1CCC1` [Compound 254, (R)-N-(2-methyl-4-(N-(1-(piperidin-4-yl)ethyl)sulfamoyl)phenyl) cyclobutanecarboxamide] showed an IC50 of over 100 µM.
`CC(NS(=O)(=O)c1ccc2nc(Cc3ccccc3)[nH]c2c1)C1CCCCC1` (stereo not drawn) [Compound 144, 2-benzyl-N-(1-cyclohexylethyl)-1H-benzo[d]imidazole-6-sulfonamide] was tested, and the IC50 was 2.1 µM.
Molecule `CC(NS(=O)(=O)c1ccc(-c2cc3ccccc3[nH]2)c2ccccc12)C1CCCCC1` (stereo not drawn) [Compound 149, N-(1-cyclohexylethyl)-4-(1H-indol-2-yl)naphthalene-1-sulfonamide] has an IC50 of over 10 µM.
Molecule `Cc1ccccc1C(=O)Nc1cc(C)c(S(=O)(=O)N[C@H](C)C2CCN(C)CC2)cc1F` [Compound 303, (R)-N-(2-fluoro-5-methyl-4-(N-(1-(1-methylpiperidin-4-yl)ethyl)sulfamoyl)phenyl)-2-methylbenzamide hydrochloride] has an IC50 of 0.009 µM.
`CC(=O)Nc1cc(C)c(S(=O)(=O)N[C@H](C)C2CCNCC2)cc1C` [Compound 172A, (R)-N-(2,5-dimethyl-4-(N-(1-(piperidin-4-yl)ethyl)sulfamoyl)phen-yl)acetamide hydrochloride] showed an IC50 of over 10 µM.
With `CN1CCCN(C(=O)C23CC(NS(=O)(=O)c4ccc5ccccc5c4)(C2)C3)CC1` [Compound 100, N-(3-(4-methyl-1,4-diazepane-1-carbonyl)bicyclo[1.1.1]pentan-1-yl)naphthalene-2-sulfonamide] the IC50 was over 10 µM.
With `Cc1ccccc1C(=O)Nc1ccc(S(=O)(=O)NC(C)(C)c2ccccc2)c2ccccc12` [Compound 283, 2-methyl-N-(4-(N-(2-phenylpropan-2-yl)sulfamoyl)naphthalen-1-yl)benzamide] the IC50 was over 100 µM.
Molecule `Cc1ccccc1C(=O)Nc1ccc(S(=O)(=O)NC(C)C2CCCN(C(=O)CN)C2)c2ccccc12` (single isomer, unassigned) [Compound 156A, N-(4-(N-(1-(1-(2-ammoacetyl)piperidin-3-yl)ethyl)sulfamoyl)naph-thalen-1-yl)-2-methylbenzamide] has an IC50 of 0.085 µM.
Molecule `Cc1c(C(=O)O)cccc1S(=O)(=O)NC(C)C1CC2CCC1CC2` (stereo not drawn) [Compound 142, 3-(N-(1-(bicyclo[2.2.2]octan-2-yl)ethyl)sulfamoyl)-2-methylbenzoic acid] has an IC50 of over 10 µM.
Molecule `CCOC(=O)N1CCCC(C(=O)NS(=O)(=O)c2ccc(NC(=O)c3ccccc3C)c3ccccc23)C1` (stereo not drawn) [Compound 5, ethyl 3-(((4-(2-methylbenzamido)naph-thalen-1-yl)sulfonyl)carbamoyl) piperidine-1-carboxylate] has an IC50 of over 10 µM.
Work on `Cc1ccccc1C(=O)Nc1ccc(S(=N)(=O)NC(C)C2CCCCC2)c2ccccc12` (stereo not drawn) [Compound 123, N-(4-(N-(1-cyclohexylethyl)sulfamimidoyl)naphthalen-1-yl)-2-methylbenzamide] yielded an IC50 of 0.0034 µM.
Molecule `Cc1ccccc1C(=O)Nc1ccc(S(=O)(=O)N(C)c2ccc3c(c2)N(C(=O)CN(C)C)CC3)c2ccccc12` [Compound 38, N-(4-(N-(1-(2-(dimethylamino)acetyl)indolin-6-yl)-N-methylsulfamoyl)naph-thalen-1-yl)-2-methylbenzamide] has an IC50 of 1.68 µM.
`Cc1cc(S(=O)(=O)N[C@H](C)C2CCNCC2)ccc1NC(=O)C1CCCCC1` [Compound 208A, (R)-N-(2-methyl-4-(N-(1-(piperidin-4-yl)ethyl)sulfamoyl)phenyl) cyclohexanecarboxamide hydrochloride] showed an IC50 of 0.055 µM.
`Cc1cc(S(=O)(=O)NC(C)C23CCN(CC2)CC3)ccc1NC(=O)c1ccccc1C` (stereo not drawn) [Compound 241, 2-methyl-N-(2-methyl-4-(N-(1-(quiuclidin-4-yl)ethyl)sulfamoyl)phen-yl)benzamide] gave an IC50 of 0.256 µM.
`CC(NS(=O)(=O)c1ccc2[nH]c(=O)cnc2c1)C1CC2CCC1CC2` (stereo not drawn) [Compound 136, N-(1-(bicyclo[2.2.2]octan-2-yl)ethyl)-2-oxo-1,2-dihydroquinoxaline-6-sulfonamide] was tested, and the IC50 was over 10 µM.
In the case of `Cc1ccccc1C(=O)Nc1ccc(S(=O)(=O)N[C@H](C)C2CCNCC2)c(Cl)c1Cl` [Compound 244A, (R)-N-(2,3-dichloro-4-(N-(1-(piperidin-4-yl)ethyl)sulfamoyl)phen-yl)-2-methylbenzamide hydrochloride], the IC50 is reported as 0.104 µM.
`Cc1ccccc1C(=O)Nc1ccc(S(=O)(=O)NC(C)C(=O)N2CCC(C)CC2)c2ccccc12` (stereo not drawn) [Compound 83, 2-methyl-N-(4-(N-(1-(4-methylpiperidin-1-yl)-1-oxopropan-2-yl)sulfamoyl)naphthalen-1-yl)benzamide] showed an IC50 of over 10 µM.
In the case of `CC(NS(=O)(=O)c1cccc(C(=O)O)c1)C1CCCCC1` (stereo not drawn) [Compound 140, 3-(N-(1-cyclohexylethyl)sul-famoyl)benzoic acid], the IC50 is reported as over 10 µM.

Same assay, conditions: read-out: Tango Assay IC50, Inhibition of CCR8 Tango cell in vitro
`CCCC(=O)N1CCCC(C(C)NS(=O)(=O)c2ccc(NC(=O)c3ccccc3C)c3ccccc23)C1` (stereo not drawn) [Compound 16, N-(4-(N-(1-(1-butyrylpiperidin-3-yl)ethyl)sulfamoyl)naph-thalen-1-yl)-2-methylbenzamide] was tested, and the IC50 was 0.5 µM.
Work on `COC1CCC([C@@H](C)NS(=O)(=O)c2ccc(NC(=O)c3ccccc3C)c(C)c2)CC1` (single isomer, unassigned) [Compound 293B, N-(4-(N-(1-(4-methoxycyclohexyl)ethyl)sulfamoyl)-2-methylphenyl)-2-methylbenzamide] yielded an IC50 of 0.046 µM.
